{"source": "patent US20240082238A1", "about": "“COMPOSITIONS AND METHODS FOR TREATING CANCER” (UNIVERSITY OF IOWA RESEARCH FOUNDATION, priority 2021, published 2024)", "system": "Hec50co tumors", "experiment": "Antitumor efficacy study, peritumoral SC injection", "type": "in vivo, athymic Nu/Nu mice", "description": "Antitumor efficacy study following subcutaneous injection (SC) at the tumor site (peritumoral). Female athymic Nu/Nu mice were subcutaneously challenged with Hec50co cells (1×10^6 cells/mouse). When mice had palpable tumors, they were randomly distributed into 3 groups: PBS group (n=3), PTX group (n=4), and PTX+CIP2b group (n=4). Then, treatments were administered subcutaneously near the tumor site (i.e., peritumorally) in five doses on days 26, 30, 33, 37, and 40 post-tumor challenge. Each dose consisted of 200 μL of either PBS, 5 mg/kg PTX (Paclitaxel concentrate diluted in DPBS), or 5 mg/kg PTX+5 mg/kg CIP2b (CIP2b in DPBS:Tween-80:ethanol 85:10:5; further dilution was made using DPBS). Body weights and tumor volumes (using Equation 2) were monitored twice a week for up to 2 weeks after the last dose (i.e., up to day 53 post-tumor challenge). On the last day of the study (day 53 post-tumor challenge), mice were euthanized, and tumors were collected and their weights were measured.", "data": [{"compound": "CC(=O)O[C@H]1C(=O)[C@@]2(C)[C@H]([C@H](OC(=O)c3ccccc3)[C@]3(O)C[C@H](OC(=O)[C@H](O)[C@@H](NC(=O)c4ccccc4)c4ccccc4)C(C)=C1C3(C)C)[C@]1(OC(C)=O)CO[C@@H]1C[C@@H]2O", "note": "[PTX, paclitaxel]", "values": [{"measurement": "average weight of tumors", "setting": "day 53, SC treatment", "result": "did not show a significant difference against either the untreated group or the combination group"}, {"measurement": "average tumor volumes vs PBS", "setting": "day 53, 5 mg/kg PTX SC, five doses", "result": "smaller than PBS control mice albeit not significantly"}]}]}
